Reference: publication PMC3303165 (Dalton Transactions (Cambridge, England : 2003), 2012)

Experiments:
[1] = tested on: Plasmodium falciparum Dd2 (chloroquine resistant strain); assay type: cell-based; conditions: DD2, read-out: Dd2: IC50
[2] = cited from earlier work
[3] = tested on: Plasmodium falciparum D10 (chloroquine sensitive strain); assay type: cell-based; conditions: D10, read-out: D10: IC50
heme aggregation = conditions: acetate buffer (pH=4.9)/n-octanol interface; cited from earlier work

| SMILES | IC50 [1] | IC50 [3] | D(pH=4.9) water/n-octanol distribution coefficient ([2]; pH 4.9) | D(pH=6.6) water/n-octanol distribution coefficient ([2]; pH 6.6) | HAIR50 (drug to hemin ratio required to inhibit 50% of heme aggregation) (heme aggregation) |
| --- | --- | --- | --- | --- | --- |
| CCN(CC)CCCC(C)Nc1ccnc2cc(Cl)ccc12 (stereo not shown) [CQ, chloroquine] | 143 ± 14 nM | 25 ± 9 nM | 0.15 ± 0.01 | 6.61 ± 0.64 | 2.92 |
| Oc1ccccc1CN=CCNc1ccnc2cc(Cl)ccc12 [L^3, N-(2-((2-hydroxyphenyl)methylimino)ethyl)-7-chloroquinolin-4-amine] | > 30000 nM | 550 ± 300 nM | – | – | – |
| Clc1ccc2c(NCCN(Cc3ccccn3)Cc3ccccn3)ccnc2c1 [L^4, N-(2-(bis((pyridin-2-yl)methyl)amino)ethyl)-7-chloroquinolin-4-amine] | 1300 ± 100 nM | 1300 ± 100 nM | – | – | – |

Further lines, with some results ahead:

| IC50 [1] | IC50 [3] | SMILES | D(pH=4.9) water/n-octanol distribution coefficient ([2]; pH 4.9) | D(pH=6.6) water/n-octanol distribution coefficient ([2]; pH 6.6) | HAIR50 (drug to hemin ratio required to inhibit 50% of heme aggregation) (heme aggregation) |
| --- | --- | --- | --- | --- | --- |
| 220 ± 30 nM | 30 ± 2 nM | Clc1ccc2c(NCCNCc3ccccn3)ccnc2c1 [L^1, N-(2-((pyridin-2-yl)methylamino)ethyl)-7-chloroquinolin-4-amine] | – | – | – |
| 250 ± 60 nM | 190 ± 30 nM | Cn1ccnc1CNCCNc1ccnc2cc(Cl)ccc12 [L^2, N-(2-((1-methyl-1H-imidazol-2-yl)methylamino)ethyl)-7-chloroquinolin-4-amine] | – | – | – |
